The target in one experiment is T1, tankyrase 2 (His6-TNKS2) (Homo sapiens, UniProt Q9H2K2).
T1 construct: His6-tankyrase 2 (construct: 934-1166)
Description: μHTS-TNKS-IWR2 TR-FRET binding assay with His6-TNKS2 in place of TNKS1. The settings on record: Table I. The protocol: (§1) μHTS-TNKS-IWR2TR-FRET Binding Assay
(§2) (10 μL/well in BD1536-well plate, a single point)
(§3) Alternatively, in place of His6-TNKS1 can use either His6-tankyrase 2 (construct: 934-1166) (His6-TNKS2) or His6-PARP1 (full length).
(§4) Biotin-IWR2: 10 mM Biotin-IWR2 stock in DMSO, stored at −20° C.
Positive control: 10 mM XAV 939 in DMSO, stored at −20° C.
(§5) Prepare Biotinylated IWR2 stock solution (3.33× stock) for TOTL and cpd wells: 200 nM Biotin-IWR2 in 5% DMSO/AB1b buffer
(§6) Prepare POSITIVE CONTROL well stock solution (3.33× stock): 200 nM XAV939 in 200 nM Biotin-IWR2/5% DMSO/AB1b buffer
(§7) (Alternatively, use TNKS2 or PARP1 stock solutions.)
(§8) Prepare Eu/APC stock solution (5× stock): 3.5 nM Eu-SA/50 nM APC-His6Ab in AB2 buffer
(§9) Add 25 μL/well 1.5% DMSO/AB1c buffer in each compound well to the compound concentration at 74 μM in 8.8% DMSO/AB1c buffer or in the 2 μL DMSO CONTROL wells (BLANK, TOTAL and POSITIVE wells) in the compound plate.
(§10) Transfer 3 μL/well above solution (solution 1,2,3) to an empty assay plate (BD1536-well plate) as follows:
(§11) Transfer 3 μL/well of the above diluted compound solutions or compound dilution buffer to the above assay plate.
(§12) Add 2 μL/well of 300 nM TNKS stock solution (4) to every well in the above assay plate.
(§13) Incubate the assay plate at 26° C. for 30 minutes.
(§14) Incubate the assay plate at 26° C. for 60 minutes.
(§15) Read the assay plate immediately at excitation wavelength of 330 nm and emission wavelength of […] in time resolved fluorescence mode.
(§16) Representative compound data for assays are listed below in Table I. Values are in uM.
For orientation: In TR-FRET formats the signal depends on donor and acceptor labels being close together.

In experiment [1] the target is T2, PARP1 (His6-PARP1, full length) (Homo sapiens, UniProt P09874).
T2 construct: His6-PARP1 (full length)
Description: μHTS-TNKS-IWR2 TR-FRET binding assay with His6-PARP1 in place of TNKS1. The conditions noted are these: Table I. As for the experimental part:
as §1, §2, §3, §4
Positive control: 10 mM […] in DMSO, stored at −20° C.
as §5, §6, §7, §8, §9, §10, §11, §12, §13, §14, §15, §16

For a further experiment, the target named is T3, Tankyrase 1 (TNKS1) (Homo sapiens, UniProt O95271).
T3 construct: construct: 1088-1327, 1266M
The experiment is described as follows: μHTS-TNKS-IWR2 TR-FRET binding assay (TNKS1). The protocol:
as §1, §2
Reagents and Stock Solutions
as §4
Assay buffer 1a (AB 1a) for TNKS dilution: 50 mM Tris, pH 7.4, 100 mM sodium chloride solution, 1 mM magnesium chloride solution, 1 mM DL-dithiothreitol solution, 0.2 mg/mL bovine serum albumin solution, 0.025% NP-40.
Assay buffer 1b (AB 1b) for Biotin-IWR2 dilution: 50 mM Tris, pH 7.4, 100 mM sodium chloride solution, 1 mM magnesium chloride solution, 1 mM DL-dithiothreitol solution, 0.2 mg/mL bovine serum albumin solution, 0.05% NP-40
Assay buffer 1c (AB 1c) for compound dilution: 50 mM Tris, pH 7.4, 100 mM sodium chloride solution, 1 mM magnesium chloride solution, 1 mM DL-dithiothreitol solution, 0.2 mg/mL bovine serum albumin solution
Assay buffer 2 (AB2) for Eu/APC: 50 mM Tris, pH 7.4, 100 mM sodium chloride solution, 1 mM magnesium chloride solution, 0.2 mg/mL bovine serum albumin solution
Reagent Stock Solution Preparation
Prepare BLANK well stock solution: 5% DMSO/AB1b buffer
Prepare TNKS1 stock solution (5× stock): 300 nM TNKS in AB1a buffer
as §10
TOTL and cpd wells: Solution 1 (Biotin-IWR2):
BLNK wells: Solution 2 (No Biotin-IWR2):
POSITIVE CONTROL wells: Solution 3 (Biotin-IWR2+XAV939)
as §11, §12
Centrifuge the assay plate at 2100 rpm for 2 minutes.
as §13, §14

Molecules are shown by their SMILES. Bounds are passed on as bounds.

Usually IC50 stands for the concentration that gives 50% inhibition. Read a high IC50 as lower potency.

T1 sequence (Q9H2K2 934-1166): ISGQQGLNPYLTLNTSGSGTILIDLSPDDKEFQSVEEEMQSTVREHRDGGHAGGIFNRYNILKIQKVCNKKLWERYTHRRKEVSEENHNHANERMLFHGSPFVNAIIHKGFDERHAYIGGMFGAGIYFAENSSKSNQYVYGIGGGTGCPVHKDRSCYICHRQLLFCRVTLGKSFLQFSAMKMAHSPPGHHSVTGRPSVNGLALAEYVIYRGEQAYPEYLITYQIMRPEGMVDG
T2 sequence (P09874 whole entry): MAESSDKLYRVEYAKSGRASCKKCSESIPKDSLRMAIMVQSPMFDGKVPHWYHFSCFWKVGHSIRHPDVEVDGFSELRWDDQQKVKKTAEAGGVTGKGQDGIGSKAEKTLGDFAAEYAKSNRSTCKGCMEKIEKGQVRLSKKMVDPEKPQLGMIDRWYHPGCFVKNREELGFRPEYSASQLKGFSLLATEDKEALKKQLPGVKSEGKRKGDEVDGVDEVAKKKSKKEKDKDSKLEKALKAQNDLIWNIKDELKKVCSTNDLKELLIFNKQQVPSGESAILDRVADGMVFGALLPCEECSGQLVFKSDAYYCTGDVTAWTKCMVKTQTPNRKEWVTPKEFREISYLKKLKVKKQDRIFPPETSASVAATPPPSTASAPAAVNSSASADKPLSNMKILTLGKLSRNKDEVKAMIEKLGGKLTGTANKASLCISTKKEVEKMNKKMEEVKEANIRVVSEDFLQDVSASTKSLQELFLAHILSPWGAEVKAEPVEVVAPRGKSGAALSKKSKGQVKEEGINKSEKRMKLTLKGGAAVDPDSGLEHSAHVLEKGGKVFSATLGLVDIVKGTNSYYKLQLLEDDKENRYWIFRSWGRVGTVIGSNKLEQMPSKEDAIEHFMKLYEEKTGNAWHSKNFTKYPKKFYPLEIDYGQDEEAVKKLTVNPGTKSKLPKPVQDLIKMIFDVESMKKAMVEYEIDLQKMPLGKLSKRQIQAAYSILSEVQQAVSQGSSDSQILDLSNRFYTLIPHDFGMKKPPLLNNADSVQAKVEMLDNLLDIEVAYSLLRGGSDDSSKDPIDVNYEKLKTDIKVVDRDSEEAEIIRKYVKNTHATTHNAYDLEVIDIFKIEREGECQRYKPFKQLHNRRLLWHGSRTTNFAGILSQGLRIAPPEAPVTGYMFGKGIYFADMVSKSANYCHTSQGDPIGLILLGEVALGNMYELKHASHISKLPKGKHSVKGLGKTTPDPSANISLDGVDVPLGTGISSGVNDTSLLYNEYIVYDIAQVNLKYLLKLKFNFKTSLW
T3 sequence (O95271 1088-1327): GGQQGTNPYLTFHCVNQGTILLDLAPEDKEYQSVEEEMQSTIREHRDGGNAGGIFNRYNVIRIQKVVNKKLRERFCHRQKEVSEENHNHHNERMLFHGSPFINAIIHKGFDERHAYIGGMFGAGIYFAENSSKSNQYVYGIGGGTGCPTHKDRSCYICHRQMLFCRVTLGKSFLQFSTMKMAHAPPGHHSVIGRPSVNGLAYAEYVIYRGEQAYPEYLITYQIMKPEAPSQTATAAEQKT

Regarding `Cn1ccc2c(=O)[nH]c(N3CCN(S(C)(=O)=O)CC3)nc21` [Example 13, 2-(4-Methanesulfonyl-piperazin-1-yl)-7-methyl-3,7-dihydro-pyrrolo[2,3-d]pyrimidin-4-one], the IC50 on tankyrase 2 (His6-TNKS2) was 126 nM; in experiment [1] it was 604 nM; on Tankyrase 1 (TNKS1), 112 nM.
For `Cn1ccc2c(=O)[nH]c(N3CCN(c4ncccn4)CC3)nc21` [Example 8, 7-Methyl-2-(4-pyrimidin-2-yl-piperazin-1-yl)-3,7-dihydro-pyrrolo[2,3-d]pyrimidin-4-one], in that order: 143 nM, 339 nM and 190 nM.
For `Cn1ccc2c(=O)[nH]c(N3CCN(c4ccccn4)CC3)nc21` [Example 4, 7-Methyl-2-(4-pyridin-2-yl-piperazin-1-yl)-3,7-dihydro-pyrrolo[2,3-d]pyrimidin-4-one], in that order: 118 nM, 437 nM and 134 nM.
On to `Cn1ccc2c(=O)[nH]c(N3CCN(c4ccccc4C#N)CC3)nc21` [Example 19, 2-[4-(7-Methyl-4-oxo-4,7-dihydro-3H-pyrrolo[2,3-d]pyrimidin-2-yl)-piperazin-1-yl]-benzonitrile], for which the IC50 on tankyrase 2 (His6-TNKS2) stood at 34 nM; in experiment [1], 1050 nM; at Tankyrase 1 (TNKS1), 43 nM.
On to `Cn1ccc2c(=O)[nH]c(N3CCN(c4ccc(S(C)(=O)=O)cc4F)CC3)nc21` [Example 24, 2-[4-(2-Fluoro-4-methanesulfonyl-phenyl)-piperazin-1-yl]-7-methyl-3,7-dihydro-pyrrolo[2,3-d]pyrimidin-4-one], for which the figures for the IC50 (on tankyrase 2 (His6-TNKS2); in experiment [1]; at Tankyrase 1 (TNKS1)) were 47 nM, 1280 nM and 35 nM, respectively.
As for `Cn1ccc2c(=O)[nH]c(N3CCN(c4ccc(F)cc4S(C)(=O)=O)CC3)nc21` [Example 5, 2-[4-(4-Fluoro-2-methanesulfonyl-phenyl)-piperazin-1-yl]-7-methyl-3,7-dihydro-pyrrolo[2,3-d]pyrimidin-4-one], the IC50 worked out at 35 nM at tankyrase 2 (His6-TNKS2), 1180 nM in experiment [1] and 30 nM on Tankyrase 1 (TNKS1).
Taken in the same sequence, the figures for `O=c1[nH]c(-c2ccc(C(F)(F)F)cc2)nc2c1ccn2CC(O)CO` (stereo not drawn) [Example 54, 7-(2,3-Dihydroxy-propyl)-2-(4-trifluoromethyl-phenyl)-3,7-dihydro-pyrrolo[2,3-d]pyrimidin-4-one] were 237 nM, 13500 nM and 425 nM.
For `CCOC(=O)c1ccc(N2CCN(c3nc4c(ccn4C)c(=O)[nH]3)CC2)cc1` [Example 2, Ethyl 4-(4-(7-methyl-4-oxo-4,7-dihydro-3H-pyrrolo[2,3-d]pyrimidin-2-yl)piperazin-1-yl)benzoate], in that order: 66 nM, 564 nM and 70 nM.
Turning to `O=c1[nH]c(-c2ccc(C(F)(F)F)cc2)nc2[nH]ccc12` [Example 37, 2-(4-Trifluoromethyl-phenyl)-3,7-dihydro-pyrrolo[2,3-d]pyrimidin-4-one], the IC50 turned out to be 217 nM at tankyrase 2 (His6-TNKS2), 1130 nM in experiment [1] and 110 nM at Tankyrase 1 (TNKS1).
For `Cn1ccc2c(=O)[nH]c(N3CCN(c4ccc(F)cc4)CC3)nc21` [Example 17, 2-[4-(4-Fluoro-phenyl)-piperazin-1-yl]-7-methyl-3,7-dihydro-pyrrolo[2,3-d]pyrimidin-4-one], in that order: 32 nM, 1080 nM and 27 nM.
Consider `CCNC(=O)c1ccc(N2CCN(c3nc4c(ccn4C)c(=O)[nH]3)CC2)cc1` [Example 55, N-Ethyl-4-[4-(7-methyl-4-oxo-4,7-dihydro-3H-pyrrolo[2,3-d]pyrimidin-2-yl)-piperazin-1-yl]-benzamide], for which the results for the IC50 (on tankyrase 2 (His6-TNKS2); in experiment [1]; at Tankyrase 1 (TNKS1)) were 40 nM, 449 nM and 37 nM, respectively.
Turning to `O=c1[nH]c(-c2ccc(C(F)(F)F)cc2)nc2c1ccn2C1CC1` [Example 59, 7-Cyclopropyl-2-(4-trifluoromethyl-phenyl)-3,7-dihydro-pyrrolo[2,3-d]pyrimidin-4-one], the IC50 on tankyrase 2 (His6-TNKS2) was 619 nM; in experiment [1], over 50000 nM; on Tankyrase 1 (TNKS1), 545 nM.
Consider `Cn1ccc2c(=O)[nH]c(-c3ccccc3)nc21` [Example 62, 7-Methyl-2-phenyl-3,7-dihydro-pyrrolo[2,3-d]pyrimidin-4-one], for which the 50% inhibitory concentration (IC50) on tankyrase 2 (His6-TNKS2) came out at 154 nM; in experiment [1], 3920 nM; on Tankyrase 1 (TNKS1) it was 117 nM.
Taken in the same sequence, the figures for `CCn1ccc2c(=O)[nH]c(N3CCN(c4ccccc4F)CC3)cc21` [Example 36, 1-Ethyl-6-[4-(2-fluoro-phenyl)-piperazin-1-yl]-1,5-dihydro-pyrrolo[3,2-c]pyridin-4-one] were 251 nM, 21000 nM and 273 nM.
As to `CC(=O)N1CCN(c2nc3c(ccn3C)c(=O)[nH]2)CC1` [Example 14, 2-(4-Acetyl-piperazin-1-yl)-7-methyl-3,7-dihydro-pyrrolo[2,3-d]pyrimidin-4-one], the half-inhibitory concentration (IC50) amounted to 427 nM on tankyrase 2 (His6-TNKS2), 229 nM in experiment [1] and 466 nM at Tankyrase 1 (TNKS1).
For `Cn1ccc2c(=O)[nH]c(N3CC(C)(c4ccc(Br)cc4)C3)nc21` [Example 15, 2-[3-(4-Bromo-phenyl)-3-methyl-azetidin-1-yl]-7-methyl-3,7-dihydro-pyrrolo[2,3-d]pyrimidin-4-one], in that order: 192 nM, 3460 nM and 348 nM.
Taken in the same sequence, the figures for `C=CCn1ccc2c(=O)[nH]c(-c3ccc(C(F)(F)F)cc3)nc21` [Example 52, 7-Allyl-2-(4-trifluoromethyl-phenyl)-3,7-dihydro-pyrrolo[2,3-d]pyrimidin-4-one] were 730 nM, over 50000 nM and 750 nM.
As for `Cn1ccc2c(=O)[nH]c(N3CCN(c4cccc(F)c4)CC3)nc21` [Example 18, 2-[4-(3-Fluoro-phenyl)-piperazin-1-yl]-7-methyl-3,7-dihydro-pyrrolo[2,3-d]pyrimidin-4-one], the IC50 on tankyrase 2 (His6-TNKS2) turned out to be 59 nM; in experiment [1], 758 nM; on Tankyrase 1 (TNKS1), 59 nM.
In the case of `Cn1ccc2c(=O)[nH]c(-c3ccc(C#N)cc3)nc21` [Example 43, 4-(7-Methyl-4-oxo-4,7-dihydro-3H-pyrrolo[2,3-d]pyrimidin-2-yl)-benzonitrile], the IC50 at tankyrase 2 (His6-TNKS2) amounted to 143 nM; in experiment [1] it was 1180 nM; on Tankyrase 1 (TNKS1) it was 110 nM.
For `C=CCCn1ccc2c(=O)[nH]c(-c3ccc(C(F)(F)F)cc3)nc21` [Example 49, 7-But-3-enyl-2-(4-trifluoromethyl-phenyl)-3,7-dihydro-pyrrolo[2,3-d]pyrimidin-4-one], in that order: 1360 nM, over 50000 nM and 1280 nM.
Taken in the same sequence, the figures for `CN1CCN(c2nc3c(ccn3C)c(=O)[nH]2)CC1` [Example 11, 7-Methyl-2-(4-methyl-piperazin-1-yl)-3,7-dihydro-pyrrolo[2,3-d]pyrimidin-4-one] were 285 nM, 471 nM and 358 nM.
Taken in the same sequence, the figures for `Cn1ccc2c(=O)[nH]c(N3CCN(c4nccnc4C#N)CC3)nc21` [Example 10, 4-(7-Methyl-4-oxo-4,7-dihydro-3H-pyrrolo[2,3-d]pyrimidin-2-yl)-3,4,5,6-tetrahydro-2H-[1,2]bipyrazinyl-3′-carbonitrile] were 121 nM, 603 nM and 111 nM.
As for `COc1ccc(-c2nc3c(ccn3C)c(=O)[nH]2)cc1` [Example 39, 2-(4-Methoxy-phenyl)-7-methyl-3,7-dihydro-pyrrolo[2,3-d]pyrimidin-4-one], the values for the IC50 (at tankyrase 2 (His6-TNKS2); in experiment [1]; at Tankyrase 1 (TNKS1)) were 58 nM, 854 nM and 54 nM, respectively.

For the origin of these results see patent publication US8722661B2, “Pyrrolopyrimidone and pyrrolopyridone inhibitors of tankyrase” (Genentech, Inc., priority 2012, dated 2014).
